# Assay results: article PMC5218480 (PLoS ONE, 2017)
# Tested on: MV-4-11 cells
# Experiment: Gene expression microarray analysis (Affymetrix PrimeView) and GSEA
# Format: cell-based, human
# Parameters: RFU PODN (11730768_x_at) / Fold change /veh PODN (11730768_x_at) / RFU LINC00158 (11744669_a_at) / Fold change /veh LINC00158 (11744669_a_at) / RFU DUSP10 (11751237_a_at) / Fold change /veh DUSP10 (11751237_a_at) / RFU ID3 (11757404_x_at) / Fold change /veh ID3 (11757404_x_at) / RFU PLEKHG5 (11737974_s_at) / Fold change /veh PLEKHG5 (11737974_s_at) / RFU LRRC4B (11730491_at) / Fold change /veh LRRC4B (11730491_at) / RFU GIMAP4 (11747438_a_at) / Fold change /veh GIMAP4 (11747438_a_at) / RFU KRT8 (11758183_x_at) / Fold change /veh KRT8 (11758183_x_at) / RFU CNN1 (11734310_a_at) / Fold change /veh CNN1 (11734310_a_at) / RFU VPS37D (11726825_at) / Fold change /veh VPS37D (11726825_at) / RFU C10orf10 (11716522_x_at) / Fold change /veh C10orf10 (11716522_x_at) / RFU KIR2DL2 /// KIR2DL4 /// KIR2DL5A /// KIR2DL5B /// KIR2DS1 /// KIR2DS2 /// KIR2DS3 /// KIR2DS4 /// KIR3DL3 /// KIR3DL3 /// KIR3DS1 (11738374_at) / Fold change /veh KIR2DL2 /// KIR2DL4 /// KIR2DL5A /// KIR2DL5B /// KIR2DS1 /// KIR2DS2 /// KIR2DS3 /// KIR2DS4 /// KIR3DL3 /// KIR3DL3 /// KIR3DS1 (11738374_at) / RFU C1QL1 (11718748_at) / Fold change /veh C1QL1 (11718748_at) / RFU TMPRSS4 (11747572_a_at) / Fold change /veh TMPRSS4 (11747572_a_at) / RFU HAMP (11756126_x_at) / Fold change /veh HAMP (11756126_x_at) / RFU RNFT2 (11725882_a_at) / Fold change /veh RNFT2 (11725882_a_at) / RFU NR4A2 (11747474_a_at) / Fold change /veh NR4A2 (11747474_a_at) / RFU ABCC12 (11746883_a_at) / Fold change /veh ABCC12 (11746883_a_at) / RFU TMEM136 (11760407_x_at) / Fold change /veh TMEM136 (11760407_x_at) / RFU CLDN22 /// WWC2 (11732394_at) / Fold change /veh CLDN22 /// WWC2 (11732394_at) / RFU HLA-DPB1 (11760878_x_at) / Fold change /veh HLA-DPB1 (11760878_x_at) / RFU SPINT1 (11716480_a_at) / Fold change /veh SPINT1 (11716480_a_at) / RFU GAP43 (11754022_s_at) / Fold change /veh GAP43 (11754022_s_at) / RFU A4GNT (11735810_at) / Fold change /veh A4GNT (11735810_at) / RFU PRB3 (11715151_x_at) / Fold change /veh PRB3 (11715151_x_at) / RFU TUBB4B (11761932_at) / Fold change /veh TUBB4B (11761932_at) / RFU CAPN14 (11732068_a_at) / Fold change /veh CAPN14 (11732068_a_at) / RFU TMCC2 (11721928_a_at) / Fold change /veh TMCC2 (11721928_a_at) / RFU IRGQ (11745062_a_at) / Fold change /veh IRGQ (11745062_a_at) / RFU FAM174B (11720279_a_at) / Fold change /veh FAM174B (11720279_a_at) / RFU TMPRSS4 (11748680_a_at) / Fold change /veh TMPRSS4 (11748680_a_at) / RFU FAM212B (11763350_a_at) / Fold change /veh FAM212B (11763350_a_at) / RFU PLEKHG5 (11743358_a_at) / Fold change /veh PLEKHG5 (11743358_a_at) / RFU ZSCAN30 (11745921_a_at) / Fold change /veh ZSCAN30 (11745921_a_at) / RFU CMKLR1 (11741424_a_at) / Fold change /veh CMKLR1 (11741424_a_at) / RFU LOC101060620 /// MAPK8IP1 (11723275_at) / Fold change /veh LOC101060620 /// MAPK8IP1 (11723275_at) / RFU SPTSSB (11747773_x_at) / Fold change /veh SPTSSB (11747773_x_at) / RFU PRSS12 (11739890_at) / Fold change /veh PRSS12 (11739890_at) / RFU BIN1 (11741810_x_at) / Fold change /veh BIN1 (11741810_x_at) / RFU WNT11 (11732464_a_at) / Fold change /veh WNT11 (11732464_a_at) / RFU C10orf10 (11716521_a_at) / Fold change /veh C10orf10 (11716521_a_at) / RFU C5orf56 (11738089_at) / Fold change /veh C5orf56 (11738089_at) / RFU CYB561 (11721691_x_at) / Fold change /veh CYB561 (11721691_x_at) / RFU ANKRD19P (11752326_a_at) / Fold change /veh ANKRD19P (11752326_a_at) / RFU OR2T12 /// OR2T33 /// OR2T8 (11738714_s_at) / Fold change /veh OR2T12 /// OR2T33 /// OR2T8 (11738714_s_at) / RFU VCAN (11748164_a_at) / Fold change /veh VCAN (11748164_a_at) / RFU JSRP1 (11732532_at) / Fold change /veh JSRP1 (11732532_at) / RFU KRTAP10-11 (11738290_x_at) / Fold change /veh KRTAP10-11 (11738290_x_at) / RFU MYO3A (11730013_a_at) / Fold change /veh MYO3A (11730013_a_at) / RFU EBF3 (11725865_a_at) / Fold change /veh EBF3 (11725865_a_at) / RFU CAMK2N1 (11719241_x_at) / Fold change /veh CAMK2N1 (11719241_x_at) / RFU C5orf56 (11738088_a_at) / Fold change /veh C5orf56 (11738088_a_at) / RFU OLFML3 (11715873_a_at) / Fold change /veh OLFML3 (11715873_a_at) / RFU LOC100653217 /// NTM (11731650_a_at) / Fold change /veh LOC100653217 /// NTM (11731650_a_at) / RFU MAPK11 (11762145_a_at) / Fold change /veh MAPK11 (11762145_a_at) / RFU FIZ1 (11724087_x_at) / Fold change /veh FIZ1 (11724087_x_at) / RFU OASL (11726364_x_at) / Fold change /veh OASL (11726364_x_at) / RFU SOX15 (11748057_x_at) / Fold change /veh SOX15 (11748057_x_at) / RFU CD79A (11719716_a_at) / Fold change /veh CD79A (11719716_a_at) / RFU HIST1H1D (11736915_at) / Fold change /veh HIST1H1D (11736915_at) / RFU CASKIN2 (11723855_a_at) / Fold change /veh CASKIN2 (11723855_a_at) / RFU LOC730098 (11760151_x_at) / Fold change /veh LOC730098 (11760151_x_at) / RFU OR4N2 (11742367_at) / Fold change /veh OR4N2 (11742367_at) / RFU PRRT2 (11749266_a_at) / Fold change /veh PRRT2 (11749266_a_at) / RFU SNX32 (11753110_a_at) / Fold change /veh SNX32 (11753110_a_at) / RFU CDHR5 (11726645_a_at) / Fold change /veh CDHR5 (11726645_a_at) / RFU RCAN1 (11760418_a_at) / Fold change /veh RCAN1 (11760418_a_at) / RFU FAM167A (11723789_a_at) / Fold change /veh FAM167A (11723789_a_at) / RFU FAM26E (11764081_at) / Fold change /veh FAM26E (11764081_at) / RFU ISYNA1 (11749810_s_at) / Fold change /veh ISYNA1 (11749810_s_at) / RFU ACY1 (11761880_at) / Fold change /veh ACY1 (11761880_at) / RFU 11764098_at / Fold change /veh 11764098_at / RFU SAMD14 (11745864_x_at) / Fold change /veh SAMD14 (11745864_x_at) / RFU NPB (11741838_a_at) / Fold change /veh NPB (11741838_a_at) / RFU TMPRSS6 (11731388_a_at) / Fold change /veh TMPRSS6 (11731388_a_at) / RFU KRTAP10-2 (11738614_at) / Fold change /veh KRTAP10-2 (11738614_at) / RFU ARHGAP8 /// PRR5-ARHGAP8 (11727945_x_at) / Fold change /veh ARHGAP8 /// PRR5-ARHGAP8 (11727945_x_at) / RFU KRTAP5-7 /// NADSYN1 (11734609_at) / Fold change /veh KRTAP5-7 /// NADSYN1 (11734609_at) / RFU RASL12 (11751679_a_at) / Fold change /veh RASL12 (11751679_a_at) / RFU CDKN2B (11736163_a_at) / Fold change /veh CDKN2B (11736163_a_at) / RFU PRF1 (11729649_at) / Fold change /veh PRF1 (11729649_at) / RFU, ZNF638 /// ZNF638-IT1 / Fold change vs veh, ZNF638 /// ZNF638-IT1 / RFU, PANK3 / Fold change vs veh, PANK3 / RFU, SH3YL1 / Fold change vs veh, SH3YL1 / RFU, ZEB2 / Fold change vs veh, ZEB2 / RFU, NRIP1 / Fold change vs veh, NRIP1 / RFU, PTTG1IP / Fold change vs veh, PTTG1IP / RFU, CAPN2 / Fold change vs veh, CAPN2 / RFU, MED14 / Fold change vs veh, MED14 / RFU, SNORA58 / Fold change vs veh, SNORA58 / RFU, C1orf63 / Fold change vs veh, C1orf63 / RFU, LRRFIP1 / Fold change vs veh, LRRFIP1 / RFU, NDUFAF7 / Fold change vs veh, NDUFAF7 / RFU, SLC12A2 / Fold change vs veh, SLC12A2 / RFU, IBTK / Fold change vs veh, IBTK / RFU, ESF1 / Fold change vs veh, ESF1 / Fold change vs veh, TMEM50B / RFU, TAOK1 / Fold change vs veh, TAOK1 / RFU, ACBD3 / Fold change vs veh, ACBD3 / RFU, TMA16 / Fold change vs veh, TMA16 / RFU, RWDD3 / Fold change vs veh, RWDD3 / RFU, BCAT1 / Fold change vs veh, BCAT1 / RFU, EDEM3 / Fold change vs veh, EDEM3 / RFU, TMEM33 / Fold change vs veh, TMEM33 / RFU, WDR75 / Fold change vs veh, WDR75 / RFU, AHCTF1 / Fold change vs veh, AHCTF1 / RFU, TFRC / Fold change vs veh, TFRC / RFU, ZDHHC17 / Fold change vs veh, ZDHHC17 / RFU, NOM1 / Fold change vs veh, NOM1 / RFU, ARL8B / Fold change vs veh, ARL8B / RFU, ZBTB11 / Fold change vs veh, ZBTB11 / RFU, TAMM41 / Fold change vs veh, TAMM41 / RFU, KIAA1704 /// LOC100996395 / Fold change vs veh, KIAA1704 /// LOC100996395 / RFU, ING1 / Fold change vs veh, ING1 / RFU, TRMT61B / Fold change vs veh, TRMT61B / RFU, FUBP3 / Fold change vs veh, FUBP3 / RFU, TP53 / Fold change vs veh, TP53 / RFU, TNKS2 / Fold change vs veh, TNKS2 / RFU, ZFP14 / Fold change vs veh, ZFP14 / RFU, ACTR2 / Fold change vs veh, ACTR2 / RFU, PPP3R1 / Fold change vs veh, PPP3R1 / RFU, PIK3R1 / Fold change vs veh, PIK3R1 / RFU, HNRNPA1 / Fold change vs veh, HNRNPA1 / RFU, RNF170 / Fold change vs veh, RNF170 / RFU, ZNF28 / Fold change vs veh, ZNF28 / RFU, RNGTT / Fold change vs veh, RNGTT / RFU, OGT / Fold change vs veh, OGT / RFU, BRD1 / Fold change vs veh, BRD1 / RFU, MARS / Fold change vs veh, MARS / RFU, ZNF655 / Fold change vs veh, ZNF655 / RFU, FAHD1 / Fold change vs veh, FAHD1 / RFU, BDP1 / Fold change vs veh, BDP1 / RFU, LRRCC1 / Fold change vs veh, LRRCC1 / RFU, ARID1A / Fold change vs veh, ARID1A / RFU, ZNF146 / Fold change vs veh, ZNF146 / RFU, ZNF330 / Fold change vs veh, ZNF330 / RFU, GPN3 / Fold change vs veh, GPN3 / RFU, C9orf123 / Fold change vs veh, C9orf123 / RFU, N4BP2L2 / Fold change vs veh, N4BP2L2 / RFU, ARFIP1 / Fold change vs veh, ARFIP1 / RFU, FAM179B / Fold change vs veh, FAM179B / RFU, BCL10 / Fold change vs veh, BCL10 / RFU, UHRF1BP1L / Fold change vs veh, UHRF1BP1L / RFU, BET1 / Fold change vs veh, BET1 / RFU, CNOT2 / Fold change vs veh, CNOT2 / RFU, ZNF268 / Fold change vs veh, ZNF268 / Fold change vs veh, ZNF507 / RFU, DGCR2 / Fold change vs veh, DGCR2 / RFU, WDSUB1 / Fold change vs veh, WDSUB1 / Fold change vs veh, HSP90B1 /// MIR3652 / RFU, ADSS / Fold change vs veh, ADSS / RFU, GK / Fold change vs veh, GK / RFU, ZNF148 / Fold change vs veh, ZNF148 / RFU, TAF9 / Fold change vs veh, TAF9 / RFU, SLC1A5 / Fold change vs veh, SLC1A5 / RFU, SLMO2 / Fold change vs veh, SLMO2 / RFU, ABCC4 / Fold change vs veh, ABCC4 / RFU, LOC101060439 /// RAP1B / Fold change vs veh, LOC101060439 /// RAP1B / RFU, RFX7 / Fold change vs veh, RFX7 / RFU, GTPBP10 / Fold change vs veh, GTPBP10 / RFU, CNEP1R1 / Fold change vs veh, CNEP1R1 / RFU, BIVM-ERCC5 /// ERCC5 / Fold change vs veh, BIVM-ERCC5 /// ERCC5 / RFU, ILF3 / Fold change vs veh, ILF3 / RFU 11762660_at / Fold change /veh 11762660_at / RFU VCAN (11757783_s_at) / Fold change /veh VCAN (11757783_s_at) / RFU DDX43 (11728927_at) / Fold change /veh DDX43 (11728927_at) / RFU KRT8 (11758188_x_at) / Fold change /veh KRT8 (11758188_x_at) / RFU NKD1 (11759106_at) / Fold change /veh NKD1 (11759106_at) / RFU SRD5A1 (11742802_a_at) / Fold change /veh SRD5A1 (11742802_a_at) / RFU TPSAB1 /// TPSB2 (11721975_s_at) / Fold change /veh TPSAB1 /// TPSB2 (11721975_s_at) / RFU GSTM3 (11746129_a_at) / Fold change /veh GSTM3 (11746129_a_at) / RFU IL23R (11737362_x_at) / Fold change /veh IL23R (11737362_x_at) / RFU TMEM51 (11727254_a_at) / Fold change /veh TMEM51 (11727254_a_at) / RFU PIWIL2 (11732686_x_at) / Fold change /veh PIWIL2 (11732686_x_at) / RFU ORM1 (11744905_x_at) / Fold change /veh ORM1 (11744905_x_at) / RFU CCDC152 (11743942_at) / Fold change /veh CCDC152 (11743942_at) / RFU ECM1 (11717891_a_at) / Fold change /veh ECM1 (11717891_a_at) / RFU IL23R (11748794_a_at) / Fold change /veh IL23R (11748794_a_at) / RFU TNFAIP8L3 (11732012_x_at) / Fold change /veh TNFAIP8L3 (11732012_x_at) / RFU MBOAT4 (11741988_at) / Fold change /veh MBOAT4 (11741988_at) / RFU 11764193_at / Fold change /veh 11764193_at / RFU TMEM53 (11763286_at) / Fold change /veh TMEM53 (11763286_at) / RFU MAGEB2 (11727129_at) / Fold change /veh MAGEB2 (11727129_at) / RFU TMEM200A (11744735_a_at) / Fold change /veh TMEM200A (11744735_a_at) / RFU CCDC152 (11751479_a_at) / Fold change /veh CCDC152 (11751479_a_at) / RFU FAM211A (11726209_a_at) / Fold change /veh FAM211A (11726209_a_at) / RFU RGS16 (11746705_a_at) / Fold change /veh RGS16 (11746705_a_at) / RFU VCAN (11755009_s_at) / Fold change /veh VCAN (11755009_s_at) / RFU RHOB (11743442_s_at) / Fold change /veh RHOB (11743442_s_at) / RFU RGS16 (11720943_a_at) / Fold change /veh RGS16 (11720943_a_at) / RFU RGS16 (11720944_at) / Fold change /veh RGS16 (11720944_at) / RFU, VPS4B / Fold change vs veh, VPS4B / RFU, CREB1 / Fold change vs veh, CREB1 / RFU, DNAJC13 / Fold change vs veh, DNAJC13 / RFU, GNAQ / Fold change vs veh, GNAQ / RFU, CDK5R1 / Fold change vs veh, CDK5R1 / RFU, ZRANB3 / Fold change vs veh, ZRANB3 / RFU, CUL4A / Fold change vs veh, CUL4A / RFU, CCNY / Fold change vs veh, CCNY / RFU, UFL1 / Fold change vs veh, UFL1 / RFU, COG3 / Fold change vs veh, COG3 / RFU, DIAPH2 / Fold change vs veh, DIAPH2 / RFU, SKA2 / Fold change vs veh, SKA2 / RFU, AFF3 / Fold change vs veh, AFF3 / RFU, LMF1 / Fold change vs veh, LMF1 / RFU, IPO11 / Fold change vs veh, IPO11 / RFU, DFFB / Fold change vs veh, DFFB / RFU, FOXP1 / Fold change vs veh, FOXP1 / RFU, CARD8 / Fold change vs veh, CARD8 / RFU, STRN3 / Fold change vs veh, STRN3 / RFU, ADK / Fold change vs veh, ADK / RFU, RASSF2 / Fold change vs veh, RASSF2 / RFU, WIPF1 / Fold change vs veh, WIPF1 / RFU, LARP1B / Fold change vs veh, LARP1B / RFU, RASA1 / Fold change vs veh, RASA1 / RFU, RB1 / Fold change vs veh, RB1 / RFU, PPFIA1 / Fold change vs veh, PPFIA1 / RFU, MAT2A / Fold change vs veh, MAT2A / RFU, CCT5 / Fold change vs veh, CCT5 / RFU, WDR92 / Fold change vs veh, WDR92 / RFU, CUX1 / Fold change vs veh, CUX1 / RFU, TTC7A / Fold change vs veh, TTC7A / RFU, TMEM135 / Fold change vs veh, TMEM135 / RFU, DEPTOR / Fold change vs veh, DEPTOR / RFU, CPM / Fold change vs veh, CPM / RFU, DNAJB6 / Fold change vs veh, DNAJB6 / RFU, CACNA2D3 / Fold change vs veh, CACNA2D3 / RFU, DTX4 / Fold change vs veh, DTX4 / RFU, TFCP2 / Fold change vs veh, TFCP2 / RFU, GMCL1 /// GMCL1P1 / Fold change vs veh, GMCL1 /// GMCL1P1 / RFU, AEBP2 / Fold change vs veh, AEBP2 / RFU, SNHG1 /// SNORD22 /// SNORD25 /// SNORD26 /// SNORD27 /// SNORD28 /// SNORD29 /// SNORD31 / Fold change vs veh, SNHG1 /// SNORD22 /// SNORD25 /// SNORD26 /// SNORD27 /// SNORD28 /// SNORD29 /// SNORD31 / Fold change (Aza/veh), C12orf56 (ProbeSet 11735607_a_at) / Fold change (ACY-1035/veh), C12orf56 (ProbeSet 11735607_a_at) / Fold change (Aza/veh), FGFR1OP (ProbeSet 11751329_s_at) / Fold change (ACY-1035/veh), FGFR1OP (ProbeSet 11751329_s_at) / Fold change (Aza/veh), VPS36 (ProbeSet 11739960_a_at) / Fold change (ACY-1035/veh), VPS36 (ProbeSet 11739960_a_at) / RFU SYPL1 (11715823_x_at) / Fold change /veh SYPL1 (11715823_x_at) / RFU IGFBP7 (11715501_s_at) / Fold change /veh IGFBP7 (11715501_s_at) / RFU REEP3 (11722064_at) / Fold change /veh REEP3 (11722064_at) / RFU IGLL1 (11728026_x_at) / Fold change /veh IGLL1 (11728026_x_at): dose or concentration left out as unconfirmed
# Details: ProbeSet 11732370_a_at; LIST D
smiles,measurement,value
Nc1ccc(-c2cccs2)cc1NC(=O)c1ccc2c(c1)cc(C1CC1)n2CCN1CCOCC1 [ACY-1035],"Fold change vs veh, CUX1",0.84
